# Reference: US8362005B2, “Monocyclic amide CGRP receptor antagonists” (Merk. Sharp & Dohme Corp., priority 2008, dated 2013)
# Ends that are not written are not given here.
# How the values were obtained:
# facial blood flow [1] = settings: marmoset, electrical stimulation of the trigeminal ganglion; cited from earlier work
# [2] = tested on: acute attacks of migraine; settings: clinical trials; cited from earlier work
# [3] = tested on: headache induced by CGRP infusion; settings: control group, clinical; cited from earlier work
# [4] = target: T1, recombinant human CL receptor/RAMP1 (Homo sapiens, UniProt O60894+Q16602); experiment: Recombinant receptor binding assay (125I-hCGRP, membranes of HEK 293 cells); settings: 10 pM 125I-hCGRP
# T1 construct: expressed in transfected cells; membranes
# Protocol: RECOMBINANT RECEPTOR: Human CL receptor (Genbank accession number L76380) was subcloned into the expression vector pIREShyg2 (BD Biosciences Clontech) as a 5′NheI and 3′ PmeI fragment. Human RAMP 1 (Genbank accession number AJ001014) was subcloned into the expression vector pIRESpuro2 (BD Biosciences Clontech) as a 5′NheI and 3′NotI fragment. HEK 293 cells (human embryonic kidney cells; ATCC #CRL-1573) were cultured in DMEM with 4.5 g/L glucose, 1 mM sodium pyruvate and 2 mM glutamine supplemented with 10% fetal bovine serum (FBS), 100 units/mL penicillin and 100 μg/mL streptomycin, and maintained at 37° C. and 95% humidity. Cells were subcultured by treatment with 0.25% trypsin with 0.1% EDTA in HBSS. Stable cell line generation was accomplished by co-transfecting 10 μg of DNA with 30 μg Lipofectamine 2000 (Invitrogen) in 75 cm^2 flasks. CL receptor and RAMP1 expression constructs were co-transfected in equal amounts. […]
# [formula] Where Y is observed CPM bound, Ymax is total bound counts, Ymin is non specific bound counts, (Ymax−Ymin) is specific bound counts, % Imax is the maximum percent inhibition, % I min is the minimum percent inhibition, radiolabel is the probe, and the Kd is the apparent dissociation constant for the radioligand for the receptor as determined by Hot saturation experiments.
# middle meningeal artery = settings: rats, electrical stimulation of the dura mater, prior administration; cited from earlier work
# facial blood flow [5] = settings: rat, trigeminal ganglion stimulation; cited from earlier work
# T1 sequence (Q16602 23-461): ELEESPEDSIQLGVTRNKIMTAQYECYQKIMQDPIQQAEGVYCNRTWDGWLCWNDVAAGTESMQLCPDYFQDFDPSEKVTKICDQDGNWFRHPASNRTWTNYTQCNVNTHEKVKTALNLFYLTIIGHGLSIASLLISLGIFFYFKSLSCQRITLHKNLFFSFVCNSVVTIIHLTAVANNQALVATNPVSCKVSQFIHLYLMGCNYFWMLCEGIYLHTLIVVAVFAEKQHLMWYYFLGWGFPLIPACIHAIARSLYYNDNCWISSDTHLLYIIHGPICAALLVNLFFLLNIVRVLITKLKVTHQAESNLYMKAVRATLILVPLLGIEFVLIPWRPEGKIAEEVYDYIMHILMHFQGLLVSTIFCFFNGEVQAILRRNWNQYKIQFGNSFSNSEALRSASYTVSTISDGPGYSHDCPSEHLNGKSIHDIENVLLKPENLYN
# T1 sequence (O60894 27-148): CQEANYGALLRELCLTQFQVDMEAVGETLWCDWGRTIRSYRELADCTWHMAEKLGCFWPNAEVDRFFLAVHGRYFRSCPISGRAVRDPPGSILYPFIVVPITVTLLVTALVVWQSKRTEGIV
compound,measurement,setting,value
NCCCC[C@H](NC(=O)[C@@H](Cc1cc(Br)c(O)c(Br)c1)NC(=O)N1CCC(N2Cc3ccccc3NC2=O)CC1)C(=O)N1CCN(c2ccncc2)CC1 [BIBN4096BS],block of the increase in facial blood flow,facial blood flow [1],could be blocked
same,efficacy in treating acute attacks of migraine,[2],effective in treating acute attacks of migraine
same,prevention of headache induced by CGRP infusion,[3],able to prevent headache induced by CGRP infusion
"O=C(Cn1c(-c2ccccc2)c(Cl)nc(N2CCCC2)c1=O)Nc1ccc2c(c1)CC1(C2)C(=O)Nc2ncccc21 (stereo not drawn) [Example 5, 2-(5-Chloro-2-oxo-6-phenyl-3-pyrrolidin-1-ylpyrazin-1(2H)-yl)-N-(2′,-oxo-1,1′,2′,3-tetrahydrospiro[indene-2,3′-pyrrolo[2,3-b]pyridin]-5-yl)acetamide]",Ki,[4],130 nM
"CGRP(8-37): a peptide CGRP antagonist; fragment of CGRP that lacks seven N-terminal amino acid residues (VTHRLAGLLSRSGGVVKNNFVPTNVGSKAF; ends and bridges not checked; UniProt P06881 90-119, looked up, fragment)",block of the increase in diameter of the middle meningeal artery,middle meningeal artery,blocked
same,inhibition of increased facial blood flow,facial blood flow [5],inhibited
